Source: patent US11000033B2, “Ketone or oxime compound, and herbicide” (NISSAN CHEMICAL CORPORATION, priority 2014, dated 2021)

Columns and labels:
rapeseed = test: Test Example 4: effect on crop by soil treatment (symbol g); type: in vivo
Procedure, shortened: (§1)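 Soil-treatment setup: crop and weed seeds were spot-sown into sterilized diluvial soil, then buried beneath approximately 1.5 cm of it, and the boxes were housed in a 25–30° C. greenhouse.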

corn [1] = test: Test Example 4: effect on crop by soil treatment (symbol c); type: in vivo
Procedure, shortened: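 Sterilized diluvial soil, spot sowing, ~1.5 cm soil cover; greenhouse 25–30° C.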

soybean = test: Test Example 5: effect on crop by foliage application, plastic box (symbol d); type: in vivo; details: 3 weeks after application
Procedure, shortened: (§2)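 Diluvial soil, sterilized and boxed (21 × 13 × 7 cm), received spot-sown seed covered by about 1.5 cm soil; plants were then greenhouse-grown at 25–30° C.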

corn [2] = test: Test Example 5: effect on crop by foliage application, plastic box (symbol c); type: in vivo; details: 3 weeks after application
Procedure, shortened: as §2

[3] = test system: Echinochloa crus-galli var. crus-galli; test: Test Example 5: herbicidal effect by foliage application, plastic box (symbol H); type: in vivo; details: 3 weeks after application
Procedure, shortened: (§3)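 Post-emergence spray; diluvial soil (sterilized), ~1.5 cm seed cover; greenhouse 25–30° C; 14-day-old plants; water-diluted emulsion at predetermined dose; visual score at 3 wk post-treatment.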

Leptochloa chinensis = test: Test Example 3: herbicidal effect by foliage application, Wagner pot (symbol D); type: in vivo
Procedure, shortened: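 Rating at 3 weeks post-spray, by defined criteria. Treatment: emulsion diluted with water to a predetermined amount, applied evenly to foliage of 14-day-old plants raised in alluvial soil flooded 0.1–0.5 cm deep at 25–30 °C, rice co-sown.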

Monochoria vaginalis = test: Test Example 2: herbicidal activity, application during weed generation in submerged conditions (symbol C); type: in vivo; details: Table 23, grade 0-5 by criteria of Test Example 1
Procedure, shortened: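 Flooded-soil post-emergence test: emulsion of compound, water-diluted to target rate, applied to paddy water surface at 1–2 leaf stage of mixed-sown weeds (alluvial soil, 4 cm water, 25–30° C. greenhouse); visual rating 3 weeks after application.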

rice = test: Test Example 4: effect on crop by soil treatment (symbol b); type: in vivo
Procedure, shortened: as §1

Digitaria ciliaris = test: Test Example 4: herbicidal effect by soil treatment (symbol F); type: in vivo
Procedure, shortened: (§4)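 Seeds were sown in sterilized diluvial soil, covered with about 1.5 cm of soil, and the soil surface was sprayed with a water-diluted emulsion of the compound at a predetermined rate. Plants grew in a greenhouse at 25° C. to 30° C.; effects were scored visually 3 weeks after application.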

Avena fatua = test: Test Example 4: herbicidal effect by soil treatment (symbol I); type: in vivo
Procedure, shortened: as §4

Alopecurus myosuroides = test: Test Example 5: herbicidal effect by foliage application, plastic box (symbol J); type: in vivo; details: 3 weeks after application
Procedure, shortened: as §3

[4] = application herbicide amount 320 g/ha
[5] = application herbicide amount 102 g/ha

Cc1cc(C)c(C2=C(O)CC(CC(=NOCC(F)(F)F)C3CC3)C2=O)c(C)c1 (stereo not drawn) [1-131]
g: rapeseed, effect grade on crop (rapeseed; 320 g/ha): 4 (Herbicidal ratio of 70% or higher and lower than 90%) | c: corn, effect grade on crop (corn [1]; 320 g/ha): 0 (Herbicidal ratio of 5% or lower (almost no effect)) | d: soybean, effect on crop (criteria 0-5) (soybean; 320 g/ha): 0 (Herbicidal ratio of 5% or lower (almost no effect)) | c: corn, effect on crop (criteria 0-5) (corn [2]; 320 g/ha): 3 (Herbicidal ratio of 40% or higher and lower than 70%) | melting point: 137 to 138 °C | H: Echinochloa crus-galli var. crus-galli, herbicidal effect (criteria 0-5) ([3]; 320 g/ha): 4 (Herbicidal ratio of 70% or higher and lower than 90%) | herbicidal effect on D (Leptochloa chinensis), grade 0-5 (Leptochloa chinensis; [4]): 5 (Herbicidal ratio of 90% or more (almost completely withered)) | Herbicidal effect grade, C: Monochoria vaginalis (Monochoria vaginalis; [4]): 0 (Herbicidal ratio of 5% or lower (almost no effect)) | b: directly sowed rice plant, effect grade on crop (rice; 320 g/ha): 5 (Herbicidal ratio of 90% or more (almost completely withered)) | F: Digitaria ciliaris, herbicidal effect grade (Digitaria ciliaris; 320 g/ha): 4 (Herbicidal ratio of 70% or higher and lower than 90%) | I: Avena fatua, herbicidal effect grade (Avena fatua; 320 g/ha): 3 (Herbicidal ratio of 40% or higher and lower than 70%) | J: Alopecurus myosuroides, herbicidal effect (criteria 0-5) (Alopecurus myosuroides; 320 g/ha): 5 (Herbicidal ratio of 90% or more (almost completely withered))

CC(=O)CC1CC(O)=C(c2c(C)cc(C)cc2C)C1=O (stereo not drawn) [2-001, 3-hydroxy-2-mesityl-5-(2-oxopropyl)cyclopent-2-enone]
g: rapeseed, effect grade on crop (rapeseed; 102 g/ha): 3 (Herbicidal ratio of 40% or higher and lower than 70%) | c: corn, effect grade on crop (corn [1]; 102 g/ha): 4 (Herbicidal ratio of 70% or higher and lower than 90%) | d: soybean, effect on crop grade (soybean; 102 g/ha): 0 (Herbicidal ratio of 5% or lower (almost no effect)) | c: corn, effect on crop grade (corn [2]; 102 g/ha): 3 (Herbicidal ratio of 40% or higher and lower than 70%) | melting point: 183 to 185 °C | H: Echinochloa crus-galli var. crus-galli, herbicidal effect grade ([3]; 102 g/ha): 5 (Herbicidal ratio of 90% or more (almost completely withered)) | herbicidal effect on D (Leptochloa chinensis), grade 0-5 (Leptochloa chinensis; [5]): 5 (Herbicidal ratio of 90% or more (almost completely withered)) | Herbicidal effect grade, C: Monochoria vaginalis (Monochoria vaginalis; [5]): 0 (Herbicidal ratio of 5% or lower (almost no effect)) | b: directly sowed rice plant, effect grade on crop (rice; 102 g/ha): 5 (Herbicidal ratio of 90% or more (almost completely withered)) | F: Digitaria ciliaris, herbicidal effect grade (Digitaria ciliaris; 102 g/ha): 5 (Herbicidal ratio of 90% or more (almost completely withered)) | I: Avena fatua, herbicidal effect grade (Avena fatua; 102 g/ha): 0 (Herbicidal ratio of 5% or lower (almost no effect)) | J: Alopecurus myosuroides, herbicidal effect grade (Alopecurus myosuroides; 102 g/ha): 5 (Herbicidal ratio of 90% or more (almost completely withered))
